Experiment: solubility and physical properties of the active principle
Format: physicochemical

Compound: ClC[Si]12OCCN(CCO1)CCO2 [1-(chloromethyl)silatrane]
- solubility in alcohol (alcohol): difficultly soluble
- solubility in chloroform (chloroform): readily soluble
- sterilizability (dry state): sterilizable in a dry state
- solubility in ether (ether): insoluble
- solubility in water (water): poorly soluble
- hygroscopicity (white crystalline powder): non-hygroscopic

Reference: US4055637A, “Medicinal preparation for healing wounds and treating dermatites using 1-(chloromethyl)silatrane” (priority 1975, dated 1977)
